The values below come from patent US6893830B1, “Method of screening oxysterol activation of LXRα” (The Board of Regents of the University of Texas System, priority 1996, dated 2005).

For orientation: EC50 means the midpoint of the concentration-response curve.

Each structure is given as a SMILES string. Where two headings read alike, the source gives them in different places.

For assay [1], the target named is T1, LXRα (Homo sapiens, UniProt Q13133).
T1 sequence (Q13133 1-447): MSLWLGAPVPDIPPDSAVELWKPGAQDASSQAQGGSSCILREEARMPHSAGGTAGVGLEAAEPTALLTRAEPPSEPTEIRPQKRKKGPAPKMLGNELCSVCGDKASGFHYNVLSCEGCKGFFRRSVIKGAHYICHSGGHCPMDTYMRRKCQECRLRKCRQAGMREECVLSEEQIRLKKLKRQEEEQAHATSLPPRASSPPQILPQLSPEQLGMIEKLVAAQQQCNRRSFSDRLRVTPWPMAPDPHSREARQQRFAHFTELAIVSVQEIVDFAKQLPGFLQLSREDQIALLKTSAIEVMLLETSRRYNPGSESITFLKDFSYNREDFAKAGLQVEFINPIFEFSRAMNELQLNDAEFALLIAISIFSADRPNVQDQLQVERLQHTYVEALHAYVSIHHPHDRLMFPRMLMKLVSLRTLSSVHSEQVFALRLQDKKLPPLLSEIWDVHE
T1 sequence (P19793 1-462 partner): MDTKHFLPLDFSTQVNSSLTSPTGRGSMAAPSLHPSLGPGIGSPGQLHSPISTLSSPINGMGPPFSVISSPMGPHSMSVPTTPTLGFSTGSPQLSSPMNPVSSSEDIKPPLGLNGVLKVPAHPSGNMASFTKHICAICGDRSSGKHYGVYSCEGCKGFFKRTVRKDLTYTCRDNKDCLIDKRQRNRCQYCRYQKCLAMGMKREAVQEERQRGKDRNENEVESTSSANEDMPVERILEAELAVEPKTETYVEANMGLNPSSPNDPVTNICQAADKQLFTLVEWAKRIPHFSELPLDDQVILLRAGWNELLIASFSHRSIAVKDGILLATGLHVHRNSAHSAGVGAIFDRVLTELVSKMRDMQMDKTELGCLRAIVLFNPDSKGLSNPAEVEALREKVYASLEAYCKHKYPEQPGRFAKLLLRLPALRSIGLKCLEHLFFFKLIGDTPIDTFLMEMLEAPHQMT
Put plainly: LXRα cotransfection assay with TK-LXREx3-LUC reporter in CV-1 cells. It counts as cell-based. The arrangement: expressed in transfected cells; host or cells: CV-1 monkey kidney cells. As to conditions: for LXRα activity: 10 μM, CV-1 cotransfection assay. As for the experimental part: FIG. 1 Human LXRα is activated by gonad sterols. (A) Transactivation of LXRα ligand binding domain (LBD) with testis extract. CV-1 cells were cotransfected with a GAL4 responsive luciferase reporter plasmid and an expression plasmid encoding no receptor or a chimeric receptor composed of the GAL4 DNA binding domain fused to the LXRα ligand binding domain (LBD) (GAL4-LXRα)^3. After transfection, cells were treated with ethanol (ETOH) or 1% of the concentrated testis extract. (B) Transactivation of LXRα with follicular fluid meiosis activating substance (FF-MAS). CV-1 cells were cotransfected with an LXRα responsive reporter plasmid and the receptor expression plasmids for LXRα alone or with RXRα. After transfection, cells were treated with ETOH or […] FF-MAS.
FIG. 2 LXRα is activated by a specific subset of oxysterols. (A) Specificity of LXRα activators. Shown is a representative group from 70 compounds evaluated for LXRα activity (10 μM) in cotransfection assays as described in FIG. 1B. […] (B) The the structure-activity relationship of LXRα activators. Data compiled from FIG. 2A and other experiments (not shown) reveal that the position of the hydroxyl on the cholesterol backbone is a determinant of LXRα activity. […] Dose response curves for LXRα activators were generated in CV-1 cell cotransfection assays as described in FIG. 1B.
Organic extraction of breeding bull testis was performed as described^6. Briefly, 12 grams of lyophilized testis was extracted with N-heptane and lipids were concentrated by roto-evaporation. Aliquots representing 1% of this material were assayed. FF-MAS was synthesized as described^18. Transient transfections in CV-1 monkey kidney cells were performed in triplicate in 48-well plates as described^3 with media containing 5% cabosil-treated calf bovine serum.
Transfections were performed in FIG. 1A using 80 ng of TK-MH100x4-LUC reporter and 30 ng of CMX-GAL4-hLXRα expression plasmids per well; and in FIG. 1B using 50 ng of TK-LXREx3-LUC reporter and 25 ng of CMX-hLXRa alone or with 25 ng CMX-hRXRa expression plasmids per well. Candidate ligands were dissolved in ethanol and added 8 hours post-transfection. As an internal standard, 50 ng of CMX-β gal was included in all transfections. All plasmid constructs and determinations of luciferase and β-galactosidase activities have been described^3. To construct CMX-LXRα, the hLXRα cDNA insert was excised from the plasmid pXR2DRV (Willy, et al., 1995, Genes Dev. 9: 1033-1045) with Kpnl and BamHI and was ligated into the expression vector CMX. CMX-βgal was constructed by ligating the β-galactosidase gene into the expression vector CMX. Chimeric Gal4-receptor expression plasmid (CMX-GAL4-LXRα) was constructed by first ligating the GAL4 portion of pSC424 (Sadowski, I. and M. Ptashne, 1989, Nucleic Acids Res. 19: 7539-7530) into the HindIII/SacI sites of pCMX (Umesono, et al., 1991, Cell 65: 1255-1266) to create pCMX-GAL4. This vector contains the CMV promoter fused to the coding sequence for GAL4 (1-147), followed by inframe polylinker cloning sites and translational stop codons. The cDNAs encoding the ligand-binding domain (LBD) of hLXRα (amino acids 166-447) was then ligated into the polylinker to create CMX-GAL4-LXRα.
Reporter plasmids for these studies were constructed by ligating the appropriate oligonucleotides into the HindIII site of the TK-LUC vector to create TK-LXREx3-LUC, TK-MH100x4-LUC (Kang, T., et al., 1993, J. Biol Chem. 268: 9629-9635). The sense strand of the LXRE oligonucleotide used to construct the reporter plasmid TK-LXREx3-LUC was 5′agctt[…]3′ (SEQ. ID. NO. 1). All constructs were verified by sequencing. Data are presented as relative light units (RLUs) and represent the mean of triplicate assays±standard error. […]

Assay [2] has as its system RXR/LXR heterodimer. Put plainly: RXR/LXR heterodimer activation, dose response in CV-1 cells with TK-LXREx3-LUC. The format is cell-based, human. Particulars: LXRα expression plasmid, dose-dependent. As for the experimental part:
TK-DR-4-LUC; human vitamin D receptor (VDR)^24, TK-DR^3-LUC; human peroxisome proliferator-activated receptor-α (PPARα)^25, TK-PPREx3-LUC; human farnesol activated receptor (FXR)^11, ΔMTV-EcREx5-LUC; human estrogen receptor (ER)^26, ΔMTV-ERE-LUC; human glucocorticoid receptor (GR)^27, MTV-LUC; Drosophila ecdysone receptor (usp/EcR)^15, ΔMTV-EcREx5-LUC. Cells were treated with ETOH or 6 μM 22(R)-hydroxycholesterol. […] FIG. 3(A)-3(D) Activation of LXRα by 22(R)-hydroxycholesterol in Drosophila (SL-2) cells. […] CV-1 cells were cotransfected with TK-LXREx3-LUC reporter plasmid and expression plasmids containing the indicated receptor combinations, and then treated with the indicated ligands. […] CV-1 cells cotransfected with the LXRα expression plasmid and TK-LXREx3-LUC reporter were treated with 9-cis RA, 22(R)-hydroxycholesterol, or both, at the indicated concentrations.
In FIG. 3B. Drosophila SL-2 cells were transfected and assayed as previously described^5 in 6-well plates with […] A5C-hLXRα or A5C-hLXRα, 0.5 mg ADH-LXREx2-LUC, 0.2 mg A5C-βGAL and […] PGEM4 carrier DNA per well.
A subset of receptors that function as RXR heterodimers have the unique ability to be activated by their own ligand, the RXR ligand (i.e., 9-cis retinoic acid), or both ligands together^11,17. […]

The target in assay [3] is T2, LXRα protein (Homo sapiens, UniProt Q13133).
T2 construct: made in house; host or cells: in vitro synthesis (cell-free translation)
T2 sequence (Q13133 1-447): T1 sequence (Q13133 1-447)
Nature of the assay: Limited protease protection assay (chymotrypsin) of [35S]-labelled Flag-LXRα. As to conditions: increasing concentrations of chymotrypsin, SDS-PAGE and autoradiography. The format is binding. As for the experimental part:
FIG. 4, Protease protection of LXRα with 22(R)-hydroxycholesterol. [^35S]-labelled LXRα protein was incubated with (A) ethanol (ETOH) control or (B) 22(R)-hydroxycholesterol, subjected to protease digestion with increasing amounts of chymotrypsin, and analyzed by SDS-PAGE and autoradiography.
In vitro synthesized [^35S]-labelled Flag-LXRα protein was subjected to protease digestion with α-chymotrysin. For these studies, LXRα with a Flag epitope fused to the amino terminus was used.
The unavailability of radiolabelled LXRα activators prevents direct ligand binding analysis. To address the possibility that 22(R)-hydroxycholesterol interacts with LXRα, a limited protease protection assay was performed (FIG. 4). In this experiment, several proteolytic fragments were generated when LXRα protein was incubated with increasing concentrations of the protease, chymotrypsin. […] The presence of a specific ligand-protected ˜30 kDa fragment has also been observed during similar analyses with other nuclear receptors. Thus, these protease protection studies support the finding that 22(R)-hydroxycholesterol interacts with LXRα.

The mark [4] stands for this setting: CV-1 cell cotransfection, dose response curves, read-out: EC50 for LXRα activators.

On to `CC(C)CCC[C@@H](C)[C@H]1CC[C@H]2[C@@H]3[C@@H](O)C=C4C[C@@H](O)CC[C@]4(C)[C@H]3CC[C@]12C` [7β-hydroxycholesterol], for which the EC50 in assay [1] (setting [4]) is 3.5 µM. As for `CC1=C(/C=C/C(C)=C\C=C\C(C)=C\C(=O)O)C(C)(C)CCC1` [9-cis retinoic acid, reference compound], in assay [2], the maximal induction worked out at 7 fold. Further, the “ligand-protected 30 kDa chymotrypsin fragment of LXRα” value in assay [3] was “not”. For the compound `CC(C)CCC[C@](C)(O)[C@H]1CC[C@H]2[C@@H]3CC=C4C[C@@H](O)CC[C@]4(C)[C@H]3CC[C@@]21C` [20(S)-hydroxycholesterol], the EC50 in assay [1] (setting [4]) was determined as 1.6 µM. With `CC(C)CC[C@H](O)[C@@H](C)[C@H]1CC[C@H]2[C@@H]3CC=C4C[C@@H](O)CC[C@]4(C)[C@H]3CC[C@]12C` [22(S)-hydroxycholesterol], in assay [1], the LXRα activity entry was “completely inactive”. For the compound `CC(C)C(O)CC[C@@H](C)[C@H]1CC[C@H]2[C@@H]3CC=C4C[C@@H](O)CC[C@]4(C)[C@H]3CC[C@]12C` (some centres unmarked) [24-hydroxycholesterol], in assay [1], the EC50 is 1.6 µM. Consider `C[C@H](CCCC(C)(C)O)[C@H]1CC[C@H]2[C@@H]3CC=C4C[C@@H](O)CC[C@]4(C)[C@H]3CC[C@]12C` [25-hydroxycholesterol], for which, in assay [1] (setting [4]), the EC50 is 3.5 µM. Take `CC(C)=CCC[C@@H](C)[C@H]1CC=C2C3=C(CC[C@@]21C)[C@@]1(C)CC[C@H](O)C(C)(C)[C@@H]1CC3` [FF-MAS]: the EC50 in assay [1] (setting [4]) worked out at 3.5 µM. Further, the “induction of transcription by LXRα” value in assay [1] (CV-1 cells, wild-type LXRα, TK-LXREx3-LUC, 50 mM FF-MAS vs ETOH) is listed as 5-6 fold. As for `CC(C)CCC[C@@H](C)[C@H]1CC[C@H]2[C@@H]3CC=C4C[C@@H](O)CC[C@]4(C)[C@H]3CC[C@]12C` [cholesterol], in assay [3], the “ligand-protected 30 kDa chymotrypsin fragment of LXRα” value is given as “not”. Take `CC(C)=CCCC(C)=CCCC(C)=CCO` [farnesol, reference compound]: the LXRα activity result in assay [1] is on record as “no LXRα activity”.
